Assay results published in PMC3766616, “Coniferyl Ferulate, a Strong Inhibitor of Glutathione S-Transferase Isolated from Radix Angelicae sinensis, Reverses Multidrug Resistance and Downregulates P-Glycoprotein” (Evidence-based Complementary and Alternative Medicine : eCAM, 2013).

Biological target: T1, Glutathione S-transferase (mainly GSTP1-1, from human placenta) (Homo sapiens, UniProt P09211)
T1 construct: GST from human placenta (mainly GSTP1-1), Sigma
Test: GSH/CDNB conjugation assay at […] nm; Hanes plot kinetics
Format: biochemical

T1 sequence (P09211 2-210): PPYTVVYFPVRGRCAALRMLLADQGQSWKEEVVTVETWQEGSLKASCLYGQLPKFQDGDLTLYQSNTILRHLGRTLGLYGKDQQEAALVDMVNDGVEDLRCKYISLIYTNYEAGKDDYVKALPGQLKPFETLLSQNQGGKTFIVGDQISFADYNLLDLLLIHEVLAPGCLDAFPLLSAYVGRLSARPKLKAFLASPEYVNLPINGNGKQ

Compound COc1cc(/C=C/COC(=O)/C=C/c2ccc(O)c(OC)c2)ccc1O [CF, Coniferyl ferulate] has an IC50 of 300 nM.
